# Reference: PubChem BioAssay (NCI)
#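 Protocol summary: plate cells (96-well), add compound at 5 concentrations, incubate 48 h, interpolate endpoints linearly. TGI is the concentration that stops growth completely.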
# Experiments:
# Assay in all cases: DTP human tumour cell line panel, 48 h
# M14 melanoma = test system: M14 melanoma
# SK-MEL-5 melanoma = test system: SK-MEL-5 melanoma
# A498 renal = test system: A498 renal
# MCF7 breast = test system: MCF7 breast
# HOP-62 NSCLC = test system: HOP-62 NSCLC
# MDA-MB-435 = test system: MDA-MB-435
# 786-0 renal = test system: 786-0 renal
# KM12 colon = test system: KM12 colon
# T-47D breast = test system: T-47D breast
# EKVX NSCLC = test system: EKVX NSCLC
# SF-539 CNS = test system: SF-539 CNS
# PC-3 prostate = test system: PC-3 prostate
# HCT-15 colon = test system: HCT-15 colon
# OVCAR-8 ovarian = test system: OVCAR-8 ovarian
# SNB-19 CNS = test system: SNB-19 CNS
# SK-MEL-2 melanoma = test system: SK-MEL-2 melanoma
# NCI-H522 lung = test system: NCI-H522 lung
# NCI/ADR-RES ovarian = test system: NCI/ADR-RES ovarian
# HCC-2998 colon = test system: HCC-2998 colon
# K-562 leukemia = test system: K-562 leukemia
# OVCAR-4 ovarian = test system: OVCAR-4 ovarian
# CAKI-1 renal = test system: CAKI-1 renal
# UACC-257 melanoma = test system: UACC-257 melanoma
# HOP-92 NSCLC = test system: HOP-92 NSCLC
# RPMI-8226 leukemia = test system: RPMI-8226 leukemia
# NCI-H460 lung = test system: NCI-H460 lung
# COLO 205 colon = test system: COLO 205 colon
# HCT-116 colon = test system: HCT-116 colon
# SN12C renal = test system: SN12C renal
# HT29 colon = test system: HT29 colon
# MALME-3M melanoma = test system: MALME-3M melanoma
# MDA-MB-231 breast = test system: MDA-MB-231 breast
# SW-620 colon = test system: SW-620 colon
# SF-268 CNS = test system: SF-268 CNS
# ACHN renal = test system: ACHN renal
# NCI-H23 lung = test system: NCI-H23 lung
# LOX IMVI melanoma = test system: LOX IMVI melanoma
# BT-549 breast = test system: BT-549 breast
# MDA-N = test system: MDA-N
# SK-OV-3 ovarian = test system: SK-OV-3 ovarian
# CCRF-CEM leukemia = test system: CCRF-CEM leukemia
# RXF 393 renal = test system: RXF 393 renal
# A549 NSCLC = test system: A549 NSCLC
# HL-60(TB) leukemia = test system: HL-60(TB) leukemia
# OVCAR-5 ovarian = test system: OVCAR-5 ovarian
# SF-295 CNS = test system: SF-295 CNS
# U251 CNS = test system: U251 CNS
# NCI-H226 lung = test system: NCI-H226 lung
# HS 578T breast = test system: HS 578T breast
# IGROV1 ovarian = test system: IGROV1 ovarian
# MOLT-4 leukemia = test system: MOLT-4 leukemia
# TK-10 renal = test system: TK-10 renal
# OVCAR-3 ovarian = test system: OVCAR-3 ovarian
# SNB-75 CNS = test system: SNB-75 CNS
# UACC-62 melanoma = test system: UACC-62 melanoma
# SK-MEL-28 melanoma = test system: SK-MEL-28 melanoma
# UO-31 renal = test system: UO-31 renal
# SR leukemia = test system: SR leukemia
compound,measurement,setting,value
O=C1Cc2c([nH]c3ccc([N+](=O)[O-])cc23)-c2ccccc2N1,TGI,M14 melanoma,> 30 µM
same,TGI,SK-MEL-5 melanoma,2.02 µM
same,TGI,A498 renal,> 19.7 µM
same,TGI,MCF7 breast,> 100 µM
same,TGI,HOP-62 NSCLC,18.8 µM
same,TGI,MDA-MB-435,> 100 µM
same,TGI,786-0 renal,> 100 µM
same,TGI,KM12 colon,> 55.1 µM
same,TGI,T-47D breast,> 100 µM
same,TGI,EKVX NSCLC,2.38 µM
same,TGI,SF-539 CNS,16.8 µM
same,TGI,PC-3 prostate,> 100 µM
same,TGI,HCT-15 colon,> 100 µM
same,TGI,OVCAR-8 ovarian,> 100 µM
same,TGI,SNB-19 CNS,> 32.7 µM
same,TGI,SK-MEL-2 melanoma,5.62 µM
same,TGI,NCI-H522 lung,> 26.2 µM
same,TGI,NCI/ADR-RES ovarian,> 84 µM
same,TGI,HCC-2998 colon,> 49.1 µM
same,TGI,K-562 leukemia,9.23 µM
same,TGI,OVCAR-4 ovarian,6.11 µM
same,TGI,CAKI-1 renal,> 95.7 µM
same,TGI,UACC-257 melanoma,> 62.8 µM
same,TGI,HOP-92 NSCLC,> 100 µM
same,TGI,RPMI-8226 leukemia,2.98 µM
same,TGI,NCI-H460 lung,> 63 µM
same,TGI,COLO 205 colon,1.16 µM
same,TGI,HCT-116 colon,1.96 µM
same,TGI,SN12C renal,19.1 µM
same,TGI,HT29 colon,4.46 µM
same,TGI,MALME-3M melanoma,> 100 µM
same,TGI,MDA-MB-231 breast,> 100 µM
same,TGI,SW-620 colon,> 58.5 µM
same,TGI,SF-268 CNS,> 94.6 µM
same,TGI,ACHN renal,> 18.2 µM
same,TGI,NCI-H23 lung,6.37 µM
same,TGI,LOX IMVI melanoma,> 100 µM
same,TGI,BT-549 breast,> 100 µM
same,TGI,MDA-N,8.44 µM
same,TGI,SK-OV-3 ovarian,> 100 µM
same,TGI,CCRF-CEM leukemia,0.325 µM
same,TGI,RXF 393 renal,14.6 µM
same,TGI,A549 NSCLC,> 56.8 µM
same,TGI,HL-60(TB) leukemia,0.752 µM
same,TGI,OVCAR-5 ovarian,0.77 µM
same,TGI,SF-295 CNS,> 100 µM
same,TGI,U251 CNS,> 83.1 µM
same,TGI,NCI-H226 lung,18.2 µM
same,TGI,HS 578T breast,> 21.2 µM
same,TGI,IGROV1 ovarian,> 100 µM
same,TGI,MOLT-4 leukemia,1.44 µM
same,TGI,TK-10 renal,> 37.9 µM
COP1(=O)OCc2cnccc2O1 (stereo not given),TGI,M14 melanoma,> 100 µM
same,TGI,SK-MEL-5 melanoma,> 100 µM
same,TGI,MCF7 breast,> 100 µM
same,TGI,HOP-62 NSCLC,> 100 µM
same,TGI,MDA-MB-435,> 100 µM
same,TGI,786-0 renal,> 100 µM
same,TGI,KM12 colon,> 100 µM
same,TGI,T-47D breast,> 100 µM
same,TGI,EKVX NSCLC,> 100 µM
same,TGI,SF-539 CNS,> 100 µM
same,TGI,PC-3 prostate,> 100 µM
same,TGI,HCT-15 colon,> 100 µM
same,TGI,OVCAR-8 ovarian,> 100 µM
same,TGI,SNB-19 CNS,> 100 µM
same,TGI,SK-MEL-2 melanoma,> 100 µM
same,TGI,NCI-H522 lung,> 100 µM
same,TGI,NCI/ADR-RES ovarian,> 100 µM
same,TGI,HCC-2998 colon,> 100 µM
same,TGI,K-562 leukemia,> 100 µM
same,TGI,OVCAR-4 ovarian,> 100 µM
same,TGI,CAKI-1 renal,> 100 µM
same,TGI,UACC-257 melanoma,> 100 µM
same,TGI,RPMI-8226 leukemia,> 100 µM
same,TGI,NCI-H460 lung,> 100 µM
same,TGI,COLO 205 colon,> 100 µM
same,TGI,HCT-116 colon,> 100 µM
same,TGI,SN12C renal,> 100 µM
same,TGI,HT29 colon,> 100 µM
same,TGI,OVCAR-3 ovarian,> 100 µM
same,TGI,SNB-75 CNS,> 100 µM
same,TGI,MALME-3M melanoma,> 100 µM
same,TGI,MDA-MB-231 breast,> 100 µM
same,TGI,UACC-62 melanoma,> 100 µM
same,TGI,SW-620 colon,> 100 µM
same,TGI,SF-268 CNS,> 100 µM
same,TGI,ACHN renal,> 100 µM
same,TGI,SK-MEL-28 melanoma,> 100 µM
same,TGI,NCI-H23 lung,> 100 µM
same,TGI,LOX IMVI melanoma,> 100 µM
same,TGI,BT-549 breast,> 100 µM
same,TGI,MDA-N,> 100 µM
same,TGI,SK-OV-3 ovarian,> 100 µM
same,TGI,UO-31 renal,> 100 µM
same,TGI,A549 NSCLC,> 100 µM
same,TGI,OVCAR-5 ovarian,> 100 µM
same,TGI,SF-295 CNS,> 100 µM
same,TGI,SR leukemia,> 100 µM
same,TGI,U251 CNS,> 100 µM
same,TGI,NCI-H226 lung,> 100 µM
same,TGI,HS 578T breast,> 100 µM
same,TGI,IGROV1 ovarian,> 100 µM
same,TGI,MOLT-4 leukemia,> 100 µM
same,TGI,TK-10 renal,> 100 µM
COc1ccc2c(c1)CN1C(=N2)CSC1c1c(Cl)cccc1[N+](=O)[O-] (stereo not given),TGI,M14 melanoma,37.3 µM
same,TGI,SK-MEL-5 melanoma,27 µM
same,TGI,MCF7 breast,30 µM
same,TGI,HOP-62 NSCLC,> 100 µM
same,TGI,MDA-MB-435,47.5 µM
same,TGI,786-0 renal,76.9 µM
same,TGI,KM12 colon,44.2 µM
same,TGI,T-47D breast,> 100 µM
same,TGI,EKVX NSCLC,77.2 µM
same,TGI,SF-539 CNS,33 µM
same,TGI,PC-3 prostate,66.3 µM
same,TGI,HCT-15 colon,40.3 µM
same,TGI,OVCAR-8 ovarian,> 100 µM
same,TGI,SNB-19 CNS,> 100 µM
same,TGI,SK-MEL-2 melanoma,34.1 µM
same,TGI,NCI-H522 lung,68.6 µM
same,TGI,NCI/ADR-RES ovarian,46.4 µM
same,TGI,HCC-2998 colon,41.6 µM
same,TGI,K-562 leukemia,61.1 µM
same,TGI,OVCAR-4 ovarian,> 100 µM
same,TGI,CAKI-1 renal,64.2 µM
same,TGI,UACC-257 melanoma,42.6 µM
same,TGI,HOP-92 NSCLC,55.7 µM
same,TGI,RPMI-8226 leukemia,34.1 µM
same,TGI,NCI-H460 lung,31.5 µM
same,TGI,COLO 205 colon,67.9 µM
same,TGI,HCT-116 colon,29.5 µM
same,TGI,SN12C renal,35 µM
same,TGI,HT29 colon,38.1 µM
same,TGI,SNB-75 CNS,74.3 µM
same,TGI,MALME-3M melanoma,> 100 µM
same,TGI,MDA-MB-231 breast,34.6 µM
same,TGI,UACC-62 melanoma,37 µM
same,TGI,SW-620 colon,50.6 µM
same,TGI,SF-268 CNS,53.8 µM
same,TGI,ACHN renal,> 100 µM
same,TGI,SK-MEL-28 melanoma,44.3 µM
same,TGI,NCI-H23 lung,56.1 µM
same,TGI,LOX IMVI melanoma,34.9 µM
same,TGI,BT-549 breast,31.9 µM
same,TGI,MDA-N,40.9 µM
same,TGI,SK-OV-3 ovarian,> 100 µM
same,TGI,RXF 393 renal,52.2 µM
same,TGI,UO-31 renal,65.1 µM
same,TGI,A549 NSCLC,> 100 µM
same,TGI,HL-60(TB) leukemia,43.8 µM
same,TGI,OVCAR-5 ovarian,95.7 µM
same,TGI,SF-295 CNS,52.6 µM
same,TGI,SR leukemia,39 µM
same,TGI,U251 CNS,37 µM
same,TGI,NCI-H226 lung,32.2 µM
same,TGI,HS 578T breast,> 100 µM
same,TGI,IGROV1 ovarian,> 100 µM
same,TGI,MOLT-4 leukemia,34.8 µM
same,TGI,TK-10 renal,84.1 µM
